Like-named read-outs stand apart in the source and are kept apart here.
Legend:
[1] = target: T1, PARP (Mus musculus, UniProt P11103); experiment: PARP inhibition assay ([32P]-NAD incorporation into TCA-precipitated poly(ADP-ribose) in permeabilised L1210 cells, oligonucleotide activated); type: biochemical, L1210 murine leukaemia cells
T1 construct: endogenous in cells; host or cells: L1210 murine leukaemia cells, permeabilised by hypotonic buffer and cold shock
Source text: In principle, the PARP assay used relies upon activating endogenous PARP (as hereinafter described) in cells containing exogenous [^32 P]-NAD^+ introduced therein by suspending the cells in a solution of [^32 P]-NAD^+ to which they have been rendered permeable in an initial pretreatment step. The poly(ADP-ribose) which is then synthesised by the enzyme can be precipitated by trichloracetic acid (TCA) and the amount of radio-labelled ^32 p incorporated therein measured, e.g. using a scintillation counter, to give a measure of the activity of the PARP under the particular conditions of the experiment. By repeating the experiment following the same procedure, and under the same conditions, in the presence of each compound to be tested the reduction in enzyme activity, representative of the inhibitory effect of the test compound, can then be ascertained from the reduction, if any, of the amount of [^32 P] measured in the TCA precipitated poly(ADP-ribose).
Thus, with a range of different compounds a set of comparative values for inhibitory activity can be obtained.
In practice, L1210 murine leukaemia cells were used as the source of the PARP enzyme after being rendered permeable to exogenous [^32 P]NAD by exposure to hypotonic buffer and cold shock. […] This oligonucleotide sequence snaps back on itself to form a double-stranded molecule with a single blunt end and provides an effective substrate for activation of PARP.
The experimental protocol adopted, in which a synthetic oligonucleotide as mentioned above is introduced as a specific activator of PARP, discriminates between PARP and other mono-ADP-ribosyltransferases in the cells.
The oligonucleotide having the palindromic sequence […], synthesised by conventional means, was vacuum dried and stored as pellets in a freezer. Before use, it was made up to 200 μg/ml in 10 mM Tris/HCl, pH 7.8, with each pellet being dissolved completely in […] of buffer. The solution was then heated to 60° C. in a water bath for 15 minutes, and allowed to cool slowly to ensure correct reannealing. After adding 9.5 ml of buffer, the concentration was checked by measuring the optical density of a diluted sample at 260 nm. The main solution was then diluted to a concentration of 200 μg/ml and stored in 500 μl aliquots in a freezer, ready for use.
The L1210 cells used as the source of the PARP enzyme were maintained as a suspension culture in RPMI medium+10% foetal bovine serum+glutamine and antibiotics (penicillin and streptomycin). HEPES and sodium bicarbonate were also added, and the cells were seeded in 100 ml of medium such that there would be a concentration of approximately 8×10^5 /ml at the time of carrying out an assay.
(§1) The solubility of the compound was then checked by adding a quantity of the DMSO solution to a quantity of the isotonic buffer, in the required final proportions that were to be used in carrying out the assay, and after an interval the solution was examined under a microscope for any signs of crystals forming.
A desired quantity of the cells, ascertained by counting with a haemocytometer, was then centrifuged (1500 rpm in a "Europa" model 24M centrifuge for 5 minutes), the supernatant removed, and the pellets obtained were resuspended in 20 ml Dul A at 4° C. before centrifuging again at 1500 rpm and 4° C. After again removing the supernatant, the cells were resuspended at a concentration of 3×10^7 cells/ml in ice cold hypotonic buffer and left for 30 minutes on ice. Nine volumes were then added of ice cold isotonic buffer, and the cells, now rendered permeable to exogenous NAD^+, were then used within the next hour for carrying out an assay.

[2] = solubility check of test compound in assay buffer (DMSO solution added to isotonic buffer, microscope); type: physicochemical
Source text: as §1, with “The compounds being tested were generally made up as a concentrated solution in DMSO (Dimethyl sulphoxide). The” for “The”

[3] = 10 μM, read-out: % Inhibition (PARP)
[4] = 30 μM, read-out: % Inhibition (PARP)
[5] = 100 μM, read-out: % Inhibition (PARP)
[6] = read-out: % Inhibition (PARP), 10 μM
[7] = read-out: % Inhibition (PARP), 30 μM
[8] = unit printed broken, attached to the next cell

T1 sequence (P11103 whole entry): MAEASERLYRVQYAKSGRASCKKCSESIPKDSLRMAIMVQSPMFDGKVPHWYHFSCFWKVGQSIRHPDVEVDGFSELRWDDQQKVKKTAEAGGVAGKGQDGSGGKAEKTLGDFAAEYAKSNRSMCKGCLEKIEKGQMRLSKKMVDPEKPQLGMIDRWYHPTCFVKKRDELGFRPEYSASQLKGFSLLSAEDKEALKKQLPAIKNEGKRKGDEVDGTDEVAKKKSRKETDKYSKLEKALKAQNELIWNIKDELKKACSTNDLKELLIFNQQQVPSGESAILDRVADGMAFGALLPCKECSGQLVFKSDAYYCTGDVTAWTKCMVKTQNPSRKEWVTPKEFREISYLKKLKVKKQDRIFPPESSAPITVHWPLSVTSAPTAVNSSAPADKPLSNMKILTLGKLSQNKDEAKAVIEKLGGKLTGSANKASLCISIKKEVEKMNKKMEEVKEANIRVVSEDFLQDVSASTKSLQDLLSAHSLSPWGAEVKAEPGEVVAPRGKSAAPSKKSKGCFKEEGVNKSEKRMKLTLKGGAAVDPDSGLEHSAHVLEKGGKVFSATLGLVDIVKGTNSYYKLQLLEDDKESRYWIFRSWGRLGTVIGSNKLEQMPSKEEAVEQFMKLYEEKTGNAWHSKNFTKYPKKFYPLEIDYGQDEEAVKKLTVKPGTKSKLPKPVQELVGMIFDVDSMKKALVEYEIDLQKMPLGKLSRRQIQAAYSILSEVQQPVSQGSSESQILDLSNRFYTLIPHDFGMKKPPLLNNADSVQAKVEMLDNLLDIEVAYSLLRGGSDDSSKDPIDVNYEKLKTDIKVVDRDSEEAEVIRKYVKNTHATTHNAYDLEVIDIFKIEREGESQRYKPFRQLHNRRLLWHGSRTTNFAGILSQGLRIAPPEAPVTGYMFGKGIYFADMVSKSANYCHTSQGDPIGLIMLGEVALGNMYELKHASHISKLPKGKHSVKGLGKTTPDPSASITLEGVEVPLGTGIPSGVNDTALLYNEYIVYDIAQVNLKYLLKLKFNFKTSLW

Row | Compound | inhibition at 10 µM [1, 3] [%] | inhibition at 30 µM [1, 4] [%] | inhibition at 100 µM [1, 5] [%] | further results
1 | NC(=O)c1cccc(O)c1 [3-hydroxybenzamide, reference compound] | 35 | 59 | 81 | 
2 | COc1cccc(C(N)=O)c1 [3-methoxybenzamide, reference compound] | 55 | 78 | 89 | 
3 | NC(=O)c1cccc(OCc2ccccc2)c1 [NU1005, 3-benzyloxybenzamide] |  |  | 76 | inhibition at 10 µM [1, 6]: 34%; inhibition at 30 µM [1, 7]: 60%
4 | COc1ccc(COc2cccc(C(N)=O)c2)cc1 [NU1006, 3-(4-methoxybenzyloxy)benzamide] | 58 | 74 |  | insolubility at assay concentration ([2]; 100 μM): insol.
5 | NC(=O)c1cccc(OCc2ccc([N+](=O)[O-])cc2)c1 [NU1007, 3-(4-nitrobenzyloxy)benzamide] | 26 |  |  | insolubility at assay concentration ([2]; 30 μM): insol.; insolubility at assay concentration ([2]; 100 μM): insol.
6 | NC(=O)c1cccc(OCC2CCCCC2)c1 [NU1008, 3-(cyclohexylmethyloxy)benzamide] |  |  |  | PARP inhibitory activity in words [1]: some PARP inhibitory activity; insolubility at assay concentration ([2]; 10 μM): insol.; insolubility at assay concentration ([2]; 30 μM): insol.; insolubility at assay concentration ([2]; 100 μM): insol.
7 | [N-]=[N+]=Nc1ccc(COc2cccc(C(N)=O)c2)cc1 [NU1013, 3-(4-Azidobenzyloxy)benzamide] |  |  |  | inhibition at 10 µM [1, 6]: 49%; inhibition at 30 µM [1, 7]: 28%; inhibition at 100 µM ([1]; read-out: % Inhibition (PARP), 100 μM): 43%
8 | NC(=O)c1cccc(OCc2ccc(N)cc2)c1 [NU1016, 3-(4-aminobenzyloxy)benzamide] | 40 | 66 | 84 | 
9 | NC(=O)c1cccc(OCCCCCBr)c1 [NU1019, 3-(5-Bromopentyloxy)benzamide] |  | 54 | 81 | 
10 | NC(=O)c1cccc(OCc2ccc3c(c2)OCO3)c1 [NU1020, 3-(Piperonyloxy)benzamide] | 51 | 70 | 93 | 
11 | NC(=O)c1cccc(OCCCCCCCCn2cnc3c(N)ncnc32)c1 [NU1022, 3-(8-adenos-9-yloctyloxy)benzamide] | 30 |  |  | 
12 | NC(=O)c1cccc(OCCCCCn2cnc3c(Cl)ncnc32)c1 [NU1023, 3-[5-(6-Chloropurin-9-yl)pentyloxy]benzamide] | 26 | 45 | 71 | 
13 | NC(=O)c1cccc(OCCCCCn2cnc3c(N)ncnc32)c1 [NU1024, 3-(5-Adenos-9-ylpentyloxy)benzamide] | 16 | 42 | 67 | 
14 | O=c1[nH]cnc2c(O)cccc12 [NU1026, 8-hydroxyquinazolin-4-[3H]one] | 78 | 87 | 95 | PARP inhibitory activity in words [1]: quite strong PARP inhibitory activity; inhibition at 0.5 µM ([1]; 0.5 μM): 18%; inhibition at 1 µM ([1]; 1 μM (1.0 μM)): 38%; inhibition at 2 µM ([1]; 2.0 μM): 54%; IC50 [1, 8]: 2 µM
15 | NC(=O)c1cccc(OCCCCCCCCCCCCn2cnc3c(N)ncnc32)c1 [NU1029, 3-(12-adenos-9-yldodecyloxy)benzamide] | 26 | 51 | 74 | 
16 | CC(=O)Nc1ccc(COc2cccc(C(N)=O)c2)cc1 [NU1030, 3-(N-acetyl-4-aminobenzyloxy)benzamide] | 49 | 70 | 84 | 
17 | C=CCOc1cccc(C(N)=O)c1 [NU1031, 3-Allyloxybenzamide] | 21 | 58 | 80 | 

Row | Compound | inhibition at 10 µM [1, 3] [%] | inhibition at 30 µM [1, 4] [%] | inhibition at 100 µM [1, 5] [%] | further results
18 | NC(=O)c1cccc2c1OCO2 [NU1034, 2,3-methylenedioxy benzamide] | 66 |  | 94 | IC50 [1, 8]: 5.3 µM
19 | NC(=O)c1cccc(OCc2ccc(C(F)(F)F)cc2)c1 [NU1036, 3-(4-Trifluoromethylbenzyloxy)benzamide] | 3 | 13 | 10 | 
20 | CCCCOc1cccc(C(N)=O)c1 [NU1038, 3-butoxybenzamide] | 23 | 50 | 78 | 
21 | CCCCCOc1cccc(C(N)=O)c1 [NU1039, 3-pentyloxybenzamide] | 18 | 45 | 66 | 
22 | CC(C)(C)c1nc2c(C(N)=O)cccc2o1 [NU1040, 2-t-butylbenzoxazole-4-carboxamide] | 87 | 88 | 93 | PARP inhibitory activity in words [1]: relatively high inhibitory activity even at low concentrations; IC50 [1, 8]: 8.4 µM
23 | COC(=O)c1ccc(COc2cccc(C(N)=O)c2)cc1 [NU1041, 3-(4-carboxymethylbenzyloxy)benzamide] |  |  |  | insolubility at assay concentration ([2]; 10 μM): insol.; insolubility at assay concentration ([2]; 30 μM): insol.; insolubility at assay concentration ([2]; 100 μM): insol.
24 | NC(=O)c1cccc(OCc2ccccc2[N+](=O)[O-])c1 [NU1042, 3-(2-Nitrobenzyloxy)benzamide] |  |  |  | insolubility at assay concentration ([2]; 10 μM): insol.; insolubility at assay concentration ([2]; 30 μM): insol.; insolubility at assay concentration ([2]; 100 μM): insol.
25 | CCCCCCCCOc1cccc(C(N)=O)c1 [NU1045, 3-octyloxybenzamide] |  |  |  | insolubility at assay concentration ([2]; 10 μM): insol.; insolubility at assay concentration ([2]; 30 μM): insol.; insolubility at assay concentration ([2]; 100 μM): insol.
26 | NC(=O)c1cccc(OCCc2ccccc2)c1 [NU1048, 3-(Phenethyl)oxybenzamide] | 30 | 50 | 72 | 
27 | NC(=O)c1cccc2oc(-c3ccccc3)nc12 [NU1051, 2-Phenylbenzoxazole-4-carboxamide] | 82 |  |  | IC50 [1]: 2.1 µM; PARP inhibitory activity in words [1]: relatively high inhibitory activity even at low concentrations
28 | COc1ccc(-c2nc3c(C(N)=O)cccc3o2)cc1 [NU1054, 2-(4-Methoxyphenyl)benzoxazole-4-carboxamide] |  |  |  | IC50 [1]: 1.1 µM; PARP inhibitory activity in words [1]: relatively high inhibitory activity even at low concentrations
29 | Cc1nc2c(C(N)=O)cccc2o1 [NU1056, 2-Methylbenzoxazole-4-carboxamide] |  |  |  | IC50 [1]: 9.5 µM; PARP inhibitory activity in words [1]: relatively high inhibitory activity even at low concentrations
30 | COc1cccc2c(=O)[nH]c(C)nc12 [NU1063, 8-Methoxy-2-methylquinazolin-4-[3H]-one] |  |  |  | IC50 [1]: 0.78 µM; PARP inhibitory activity in words [1]: potent PARP inhibitors
31 | COc1cccc2c(=O)[nH]c(-c3ccccc3)nc12 [NU1065, 8-Methoxy-2-phenylquinazolin-4-[3H]-one] |  |  |  | IC50 [1]: 4.2 µM
32 | O=c1[nH]c(-c2ccccc2)nc2c(O)cccc12 [NU1068, 8-Hydroxy-2-phenylquinazolin-4-[3H]-one] |  |  |  | IC50 [1]: 0.53 µM; PARP inhibitory activity in words [1]: potent PARP inhibitors
33 | Cc1nc2c(C)cccc2c(=O)[nH]1 [NU1069, 2,8-Dimethylquinazolin-4-[3H]-one] |  |  |  | IC50 [1]: 0.2 µM; PARP inhibitory activity in words [1]: potent PARP inhibitors
34 | CGGAATTCCG: small synthetic single strand oligonucleotide having the palindromic sequence CGGAATTCCG (chemistry not given here) [reference compound] |  |  |  | activation of PARP in words [1]: potent activator of the enzyme
